In brackets after ≈: the same amount, converted by molar mass.
Tests used:
[1] = Solubility of compound in 15% DMSO by UV-Vis spectrophotometric method; type: physicochemical
[2] = system: Tick-borne encephalitis virus; test: Antiviral activity against TBEV Absettarov infected in PEK cells assessed as plaque reduction preincubated for 1 hr followed by overlaying with 1.26% methylcellulose and measured after 6 days by gentian violet staining-based assay; type: functional, organism-based
[3] = Solubility of compound in 5% DMSO by UV-Vis spectrophotometric method; type: physicochemical
[4] = Cytotoxicity against PEK cells after 7 days by microscopic method; type: cell-based, Sus scrofa; settings: pig
[5] = Cytotoxicity against PEK cells after 24 hrs by microscopic method; type: cell-based, Sus scrofa; settings: pig

| SMILES | solubility [1] [µM] | EC50 [2] [µM] | solubility [3] [µM] | CC50 at 168 h [4] [µM] | CC50 at 24 h [5] [µM] |
| --- | --- | --- | --- | --- | --- |
| O=c1[nH]c(=O)n([C@H]2C[C@H](O)[C@@H](CO)O2)cc1C#Cc1ccc2c3cccc4cccc(c5cccc1c52)c43 | 7.8 (≈ 3.92 µg/mL) |  |  |  |  |
| [N-]=[N+]=NCO[C@H]1C[C@H](n2cc(C#Cc3ccc4c5cccc6cccc(c7cccc3c74)c65)c(=O)[nH]c2=O)O[C@@H]1CO |  | 0.0054 | 680 (≈ 379 µg/mL) | 35 | > 50 |
| O=c1[nH]c(=O)n([C@H]2C[C@H](OCn3cc(CCO)nn3)[C@@H](CO)O2)cc1C#Cc1ccc2c3cccc4cccc(c5cccc1c52)c43 |  | 0.05 |  | > 50 | > 50 |
| O=c1[nH]c(=O)n([C@H]2C[C@H](OCn3cc(CCCCO)nn3)[C@@H](CO)O2)cc1C#Cc1ccc2c3cccc4cccc(c5cccc1c52)c43 |  | 0.023 |  | > 50 | > 50 |
| O=c1[nH]c(=O)n([C@H]2C[C@H](OCn3cc(CO)nn3)[C@@H](CO)O2)cc1C#Cc1ccc2c3cccc4cccc(c5cccc1c52)c43 |  | 0.03 |  | > 50 | > 50 |
| O=c1[nH]c(=O)n([C@H]2C[C@H](OCn3cc(CCCO)nn3)[C@@H](CO)O2)cc1C#Cc1ccc2c3cccc4cccc(c5cccc1c52)c43 |  | 0.037 |  | > 50 | > 50 |
| CSCO[C@H]1C[C@H](n2cc(C#Cc3ccc4c5cccc6cccc(c7cccc3c74)c65)c(=O)[nH]c2=O)O[C@@H]1CO |  | 0.0077 | 150 (≈ 84.4 µg/mL) | > 50 | > 50 |
